According to patent publication US6987093B2 (priority 2001, dated 2006):
≈ marks a conversion by molar mass, not a printed value. Where “and” joins values, the source holds several entries; their conditions need not be identical. Identical values can stand only once.

Experiments:
[1] = tested on: Haemophilus influenzae 54A1100; experiment: Gerbil middle ear (otitis media) infection model, ED50, H. influenzae 54A1100; format: in vivo
[2] = tested on: H. influenzae; experiment: Single dose azithromycin pediatric AOM trial, subjects with H. influenzae at baseline; format: in vivo, human
Source text: (§1) Children six months to twelve years were enrolled if they had symptoms and signs of acute otitis media (“AOM”) for less than four weeks and middle ear effusion by acoustic reflectometry. Symptoms necessary for enrollment included ear pain or fullness, discharge from the external auditory canal, decreased hearing or fever. On physical examination they must have had one or more of the following: bulging or marked erythema of the tympanic membrane, loss of the normal light reflex or tympanic membrane landmarks, or impaired tympanic mobility on biphasic pneumatic otoscopy. The effusion was to be documented by acoustic reflectometry with an abnormal reading of 3 or higher.
(§2) Samples of middle ear fluid were obtained by tympanocentesis or, in the case of a perforated tympanic membrane, by swab. Middle ear fluid samples were obtained for culture at baseline. […] Children who vomited within thirty minutes of dosing were redosed.
(§3) Samples of middle ear fluid were split for storage at a central laboratory and cultured locally.
(§4) A phone contact occurred on study day 5 to assess for adverse events followed by visits on days 10 and 24–28, at which time detailed clinical assessments were made and adverse events were recorded. Definitions included clinical cure (complete resolution of all signs and symptoms of AOM); improvement (partial resolution of signs and symptoms); or failure (no change or worsening of signs and symptoms, or requirement for additional antibiotic therapy for AOM). Any patient considered to have failed therapy was to have a repeat tympanocentesis.
The primary endpoint of the trial was the investigator designated cure rate at Day 24–28 for which a 95% confidence interval was computed using the normal approximation to the binomial distribution. Other endpoints analyzed included the clinical response rate by baseline pathogen at Day 24–28, the overall clinical response at Day 10, the percentage of subjects with individual signs and symptoms, as well as findings from pneumatic otoscopy and acoustic reflectometry. […]

[3] = tested on: H. influenzae 54A1218; experiment: MIC determination, H. influenzae 54A1218; format: cell-based; conditions: Haemophilus influenzae
Description: MIC Determinations. Streptococcus pneumoniae, S. pyogenes, E. faecalis, and H. influenzae MICs were determined using the broth microdilution procedure recommended by the NCCLS. Test trays were incubated at 35C without carbon dioxide. For testing of streptococci, the cation-adjusted Mueller-Hinton broth was supplemented with 2–3% lysed horse blood. For testing H. influenzae, freshly prepared Haemophilus Test Medium broth was used.
Bacterial Strains. • S. pneumoniae 02J1016, serotype 3, originally isolated from blood culture (strain P 4241) (MLS- and penicillin-susceptible). • S. pyogenes 02C0203, ATCC 12384, group A, type 3 (MLS-susceptible). • E. faecalis 03A1085, vancomycin susceptible clinically derived strain. • H. influenzae 54A1100, (43095 ATCC Fulghum strain) non-serotype B strain originally isolated from otitis media (macrolide and penicillin susceptible). • H. influenzae 54A1218, clinically derived non-serotype B strain (macrolide-susceptible, penicillin-resistant, TEM-1 beta-lactamase).

[4] = tested on: S. pneumoniae; experiment: Single dose azithromycin pediatric AOM trial, subjects with S. pneumoniae at baseline; format: in vivo, human; conditions: for patients cured at day 28: 30 mg/kg
Source text: as §1, §2, §3, §4
(§5) The primary endpoint of the trial was the investigator designated cure rate at Day 24–28 for which a 95% confidence interval was computed using the normal approximation to the binomial distribution. Other endpoints analyzed included the clinical response rate by baseline pathogen at Day 24–28, the overall clinical response at Day 10, the percentage of subjects with individual signs and symptoms, as well as findings from pneumatic otoscopy and acoustic reflectometry. Only Streptococcus pneumoniae, Moraxella catarrhalis and Haemophilus influenzae were considered baseline pathogens for the purposes of these analyses.
(§6) Not all strains are equally virulent and the growth rate and kinetics of infection may influence the outcome. In addition, H. influenzae has been a difficult organism to culture from the middle ear.

[5] = tested on: acute otitis media; experiment: Single 30 mg/kg dose azithromycin pediatric acute otitis media trial (Study A0661015), all subjects
Source text: Craig, W. A., “Postantibiotic effects and the dosing of Macrolides, azalides, and streptogramins”, In: Zinner, S. H. et al. (editor) Expanding Indications for New Macrolides, Azalides, and Streptogramins, New York: Marel Dekker (1997), pp. 27–38.
as §1, §2, §4, §5
This trial was an open-label, non-comparative study conducted at twenty-two sites from the United States, Costa Rica, Guatemala and Chile.
as §6

[6] = tested on: Streptococcus pneumoniae 02J1016; experiment: Murine peritonitis model, Streptococcus pneumoniae; format: in vivo, mouse; conditions: oral QD
[7] = tested on: Mycoplasma pneumoniae; conditions: single oral 10 mg/kg dose; only one of several macrolides tested; cited from earlier work
[8] = tested on: Haemophilus influenzae 54A1218; experiment: Gerbil middle ear infection in vivo time kill, H. influenzae 54A1218; conditions: for eradication: at 72 and 96 hours post-infection
[9] = tested on: Haemophilus influenzae 54A1100; experiment: Gerbil middle ear infection in vivo time kill, H. influenzae 54A1100
[10] = tested on: Streptococcus pneumoniae 02J1016; experiment: Murine lung (pulmonary/pneumonia) infection model challenged with Streptococcus pneumoniae; format: in vivo, mouse
[11] = oral QD, gerbil otitis media model
[12] = 66.6 mg/kg/day oral Q.D. [3 days], 48 hours post-infection
[13] = 66.6 mg/kg/day oral Q.D. [3 days], 72 hours post-infection
[14] = 66.6 mg/kg/day oral Q.D. [3 days], 96 hours post-infection
[15] = 100 mg/kg/day oral Q.D. [2 days], 48 hours post-infection
[16] = 100 mg/kg/day oral Q.D. [2 days], 72 hours post-infection
[17] = 100 mg/kg/day oral Q.D. [2 days], 96 hours post-infection
[18] = 200 mg/kg/day oral Q.D. [1 day], 48 hours post-infection
[19] = 200 mg/kg/day oral Q.D. [1 day], 72 hours post-infection
[20] = 200 mg/kg/day oral Q.D. [1 day], 96 hours post-infection
[21] = oral QD, murine pneumonia model

For `CC[C@H]1OC(=O)[C@H](C)[C@@H](O[C@H]2C[C@@](C)(OC)[C@@H](O)[C@H](C)O2)[C@H](C)[C@@H](O[C@@H]2O[C@H](C)C[C@H](N(C)C)[C@H]2O)[C@](C)(O)C[C@@H](C)CN(C)[C@H](C)[C@@H](O)[C@]1(C)O` [Azithromycin, 9a-aza-9a-methyl-9-deoxo-9a-homoerythromycin A], the ED50 ([1]; Dosing Regimen 1 day) was 138.1 (118.7–157.6) mg/kg/total, the ED50 ([1]; Dosing Regimen 2 days) was 138.1 (118.7–157.6) mg/kg/total and the ED50 ([1]; Dosing Regimen 3 days) was 162.9 (140–185.9) mg/kg/total. For the same compound, the “ED50 One-Day Therapy” value [1, 11] was 138 mg/kg/therapy, the “ED50 Three-Day Therapy” value [1, 11] was 163 mg/kg/therapy and the “ED50 Two-Day Therapy” value [1, 11] was 138 mg/kg/therapy. For the same compound, the ED50 ([1]; past studies, Q.D. 3) was 162.7 mg/kg/total regimen, the “clinical failure (and presumed persistence) rate” value ([2]; MITT, thirty-nine evaluable H. influenzae strains) was 33.3% and the “clinical cure rate overall with PCR-identified H. influenzae cures added” value ([2]; TOC, seventeen PCR-identified patients added) was 76.8%. For the same compound, the “clinical outcome at test of cure of patients with H. influenzae identified by PCR only” value ([2]; seventeen additional patients) was “clinically cured”, the MIC [3] was 0.78 µg/mL (≈ 1.04 µM) and the “clinical cure rate versus susceptible S. pneumoniae isolates” value ([4]; MICs≦0.25 μg/ml) was 92.5%. For the same compound, the strains clinically cured ([4]; human, in vivo) was 40%, the “patients cured at day 28” value ([4]; human, in vivo) was “two of these five” and the “Clinical cure at day 28, number of children” value ([4]; nine children with penicillin resistant S. pneumoniae isolates (MIC≧2 μg/ml)) was 6. For the same compound, the “clinical cure rate versus resistant S. pneumoniae isolates” value ([4]; resistant isolates) was 66.7%, the “patients cured at day 28” value ([4]; seven patients with mef A isolates (MIC 8 μg/ml), single 30 mg/kg dose) was “Six of these seven and 6/7” and the “children with acoustic reflectometry scores improved from baseline” value ([5]; by day 24–28) was 83%. For the same compound, the “children with completely normal acoustic reflectometry readings” value ([5]; by day 24–28) was 53%, the “patients with complete resolution of baseline symptoms” value ([5]; by day 28) was “Ninety-two” and the “patients with impaired tympanic membrane motility” value ([5]; day 10 (93% at baseline)) was 27%. For the same compound, the “subjects with other objective signs of tympanic membrane disease” value ([5]; day 24–28) was “less than 10%”, the “patients with impaired tympanic membrane motility” value ([5]; day 24–28 (93% at baseline)) was 12% and the adverse event diarrhea ([5]; single 30 mg/kg oral dose) was 3%. The adverse event vomiting ([5]; single 30 mg/kg oral dose) was 6%, the “ED50 One-Day Therapy” value [6] was 8.7^1 mg/kg/therapy and the “ED50 Three-Day Therapy” value [6] was 15.1 mg/kg/therapy. The “ED50 Two-Day Therapy” value [6] was 7.6 mg/kg/therapy, the efficacy [7] was “efficacious” and the “Recoverable CFU (Bulla) [Log10.Geo.Mean] (SEM)” value [8, 12] was <5.2399 (1.21) log of cfu-bulla wash/ml and <5.2399 log of cfu-bulla wash/ml. For the same compound, the “Recoverable CFU (Bulla) [Log10.Geo.Mean] (SEM)” value [8, 13] was <2.0000 log of cfu-bulla wash/ml, the “Recoverable CFU (Bulla) [Log10.Geo.Mean] (SEM)” value [8, 14] was <2.0000 log of cfu-bulla wash/ml and the “Recoverable CFU (Bulla) [Log10.Geo.Mean] (SEM)” value [8, 15] was <3.8587 (1.04) log of cfu-bulla wash/ml and <3.857 log of cfu-bulla wash/ml. For the same compound, the “Recoverable CFU (Bulla) [Log10.Geo.Mean] (SEM)” value [8, 16] was <2.0000 log of cfu-bulla wash/ml, the “Recoverable CFU (Bulla) [Log10.Geo.Mean] (SEM)” value [8, 17] was <2.0000 log of cfu-bulla wash/ml and the “Recoverable CFU (Bulla) [Log10.Geo.Mean] (SEM)” value [8, 18] was <2.0000 log of cfu-bulla wash/ml. For the same compound, the “Recoverable CFU (Bulla) [Log10.Geo.Mean] (SEM)” value [8, 19] was <2.0602 log of cfu-bulla wash/ml, the “Recoverable CFU (Bulla) [Log10.Geo.Mean] (SEM)” value [8, 20] was <2.0000 log of cfu-bulla wash/ml and the eradication ([8]; Q.D. 2) was “eradication was observed”. The eradication ([8]; Q.D. 3) was “eradication was observed”, the “% Clearance of Group” value ([8]; QD1, 48 hours post infection, <1 × 10^3 cfu/ml considered negative) was 100% and the “% Clearance of Group” value ([8]; QD1, 72 hours post infection) was 100%. For the same compound, the “% Clearance of Group” value ([8]; QD1, 96 hours post infection) was 100%, the “% Clearance of Group” value ([8]; QD2, 48 hours post infection) was 40% and the “% Clearance of Group” value ([8]; QD2, 72 hours post infection) was 100%. The “% Clearance of Group” value ([8]; QD2, 96 hours post infection) was 100%, the “% Clearance of Group” value ([8]; QD3, 48 hours post infection) was 40% and the “% Clearance of Group” value ([8]; QD3, 72 hours post infection) was 100%. For the same compound, the “% Clearance of Group” value ([8]; QD3, 96 hours post infection) was 100%, the “Recoverable CFU (Bulla) [Log10.Geo.Mean] (SEM)” value [9, 12] was 5.8817 (0.44) log of cfu-bulla wash/ml and 5.8817 log of cfu-bulla wash/ml and the “Recoverable CFU (Bulla) [Log10.Geo.Mean] (SEM)” value [9, 13] was 4.5981 (0.14) log of cfu-bulla wash/ml and 4.5981 log of cfu-bulla wash/ml. The “Recoverable CFU (Bulla) [Log10.Geo.Mean] (SEM)” value [9, 14] was 6.1520 (0.75) log of cfu-bulla wash/ml and 6.1520 log of cfu-bulla wash/ml, the “Recoverable CFU (Bulla) [Log10.Geo.Mean] (SEM)” value [9, 15] was 5.7572 (0.54) log of cfu-bulla wash/ml and 5.7572 log of cfu-bulla wash/ml and the “Recoverable CFU (Bulla) [Log10.Geo.Mean] (SEM)” value [9, 16] was <2.4580 (0.46) log of cfu-bulla wash/ml and <2.4580 log of cfu-bulla wash/ml. For the same compound, the “Recoverable CFU (Bulla) [Log10.Geo.Mean] (SEM)” value [9, 17] was <3.1112 (1.11) log of cfu-bulla wash/ml and <3.1112 log of cfu-bulla wash/ml, the “Recoverable CFU (Bulla) [Log10.Geo.Mean] (SEM)” value [9, 18] was <2.0000 log of cfu-bulla wash/ml and the “Recoverable CFU (Bulla) [Log10.Geo.Mean] (SEM)” value [9, 19] was <2.0000 log of cfu-bulla wash/ml. For the same compound, the “Recoverable CFU (Bulla) [Log10.Geo.Mean] (SEM)” value [9, 20] was <2.0000 log of cfu-bulla wash/ml, the “eradication, test subjects” value ([9]; Q.D. 2 (100 mg/kg on day 1 and 2), at 72 and at 96 hours post-infection) was 4/5 and the “eradication in any test subject” value ([9]; Q.D. 3 (66.6 mg/kg on day 1, 2 and 3), 72 and 96 hours post-infection) was “not observed”. For the same compound, the “Oral PD50” value ([10]; Dosing Regimen 1 day) was 20.4 (16.4–24.3) mg/kg/day, the “Oral PD50” value ([10]; Dosing Regimen 2 days) was 27.6 (22.8–32.4) mg/kg/day and the “Oral PD50” value ([10]; Dosing Regimen 3 days) was 49.4 (28.1–70.8) mg/kg/day. The “Mice Surviving/Total” value ([10]; mouse, in vivo) was 0/10 and 10/10 and 7/10 and 1/10 and 9/10 and 4/10, the “ED50 One-Day Therapy” value [10, 21] was 20^1 mg/kg/therapy and the “ED50 Three-Day Therapy” value [10, 21] was 49 mg/kg/therapy. The “ED50 Two-Day Therapy” value [10, 21] was 27 mg/kg/therapy.
